Results: paper PMC6085350, “Small molecule inhibitors of RAS-effector protein interactions derived using an intracellular antibody fragment” (Nature Communications, 2018)

How the values were obtained:
Assay in all cases: Kinase panel (KinaseProfiler)
Type in all cases: biochemical
[1] = biological target: T1, PDK1 (Homo sapiens, UniProt O15530); conditions: PDK1, 10μM
T1 construct: purchased Eurofins Pharma Discovery Services (KinaseProfiler)
Protocol: (§1) Experiments were performed by Eurofins Pharma Discovery Services. The KinaseProfiler™ assay protocol guide can be downloaded from their website: www.eurofins.com/discoveryservices. The guide contains information on the buffer conditions, substrate and reference inhibitor blank used for each kinase.
(§2) Supplementary Table 3. Assessment of potential interaction of Abd-7 with a human kinase
(§3) Kinase % kinase activity in
(§4) A panel of 14 Kinases (relevant to the RAS pathway) has been screened against Abd-7
(§5) (10μM) and the kinase activity was measured. […] of activity was observe for all
(§6) function of the selected and RAS relevant kinase proteins.

[2] = biological target: T2, PKBγ (Homo sapiens, UniProt Q9Y243); conditions: 10μM
T2 construct: purchased Eurofins Pharma Discovery Services (KinaseProfiler)
Protocol: as §1, §2, §3, §4, §5, §6

[3] = biological target: T3, EGFR (Homo sapiens, UniProt P00533); conditions: 10μM
T3 construct: purchased Eurofins Pharma Discovery Services (KinaseProfiler)
Protocol: as §1, §2, §3, §4, §5, §6

T1 sequence (O15530 whole entry): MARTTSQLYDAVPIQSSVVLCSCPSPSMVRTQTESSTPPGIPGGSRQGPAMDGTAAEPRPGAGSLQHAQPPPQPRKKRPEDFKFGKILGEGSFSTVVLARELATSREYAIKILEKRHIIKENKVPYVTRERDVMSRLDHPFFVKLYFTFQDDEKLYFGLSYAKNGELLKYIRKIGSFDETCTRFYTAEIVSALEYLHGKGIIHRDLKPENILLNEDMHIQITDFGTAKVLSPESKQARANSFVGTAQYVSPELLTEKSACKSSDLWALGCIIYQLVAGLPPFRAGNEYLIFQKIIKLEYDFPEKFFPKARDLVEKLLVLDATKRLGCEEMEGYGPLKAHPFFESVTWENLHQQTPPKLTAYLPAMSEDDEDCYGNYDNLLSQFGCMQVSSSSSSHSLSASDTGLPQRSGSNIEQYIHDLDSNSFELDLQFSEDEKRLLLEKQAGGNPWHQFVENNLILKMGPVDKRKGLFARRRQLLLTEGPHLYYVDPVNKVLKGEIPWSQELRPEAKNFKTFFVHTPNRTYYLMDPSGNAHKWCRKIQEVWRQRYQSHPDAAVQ
T3 sequence (P00533 25-1210): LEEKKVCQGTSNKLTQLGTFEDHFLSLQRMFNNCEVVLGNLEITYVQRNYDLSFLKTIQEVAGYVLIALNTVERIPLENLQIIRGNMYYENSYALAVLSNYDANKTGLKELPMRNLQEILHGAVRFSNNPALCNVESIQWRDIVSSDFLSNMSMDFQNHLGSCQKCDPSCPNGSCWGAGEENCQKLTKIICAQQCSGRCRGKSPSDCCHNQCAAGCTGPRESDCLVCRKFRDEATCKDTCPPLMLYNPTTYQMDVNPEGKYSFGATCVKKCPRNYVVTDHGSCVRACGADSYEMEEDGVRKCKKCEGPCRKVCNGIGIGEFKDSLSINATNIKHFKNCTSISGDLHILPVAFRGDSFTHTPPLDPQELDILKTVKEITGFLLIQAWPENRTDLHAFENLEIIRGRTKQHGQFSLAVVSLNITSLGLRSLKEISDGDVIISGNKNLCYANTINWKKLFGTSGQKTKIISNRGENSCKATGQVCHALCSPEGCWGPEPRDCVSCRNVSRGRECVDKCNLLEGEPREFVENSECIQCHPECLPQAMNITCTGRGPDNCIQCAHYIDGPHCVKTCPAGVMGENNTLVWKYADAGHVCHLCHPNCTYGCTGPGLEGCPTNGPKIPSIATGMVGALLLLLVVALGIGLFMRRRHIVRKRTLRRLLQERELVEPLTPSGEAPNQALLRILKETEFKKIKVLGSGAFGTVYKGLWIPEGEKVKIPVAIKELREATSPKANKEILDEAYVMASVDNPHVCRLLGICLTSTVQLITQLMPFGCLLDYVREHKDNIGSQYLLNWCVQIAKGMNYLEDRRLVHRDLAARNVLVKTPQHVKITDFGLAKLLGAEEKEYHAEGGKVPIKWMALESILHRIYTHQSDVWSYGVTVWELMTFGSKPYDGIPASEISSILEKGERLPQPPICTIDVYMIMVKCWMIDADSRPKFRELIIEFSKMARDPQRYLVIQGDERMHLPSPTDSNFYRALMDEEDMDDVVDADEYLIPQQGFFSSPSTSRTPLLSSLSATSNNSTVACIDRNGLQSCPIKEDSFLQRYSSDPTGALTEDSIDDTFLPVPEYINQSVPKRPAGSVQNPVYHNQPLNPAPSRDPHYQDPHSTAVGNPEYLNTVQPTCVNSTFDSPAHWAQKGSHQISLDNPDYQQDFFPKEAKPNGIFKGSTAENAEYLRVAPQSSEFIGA
T2 sequence (Q9Y243 whole entry): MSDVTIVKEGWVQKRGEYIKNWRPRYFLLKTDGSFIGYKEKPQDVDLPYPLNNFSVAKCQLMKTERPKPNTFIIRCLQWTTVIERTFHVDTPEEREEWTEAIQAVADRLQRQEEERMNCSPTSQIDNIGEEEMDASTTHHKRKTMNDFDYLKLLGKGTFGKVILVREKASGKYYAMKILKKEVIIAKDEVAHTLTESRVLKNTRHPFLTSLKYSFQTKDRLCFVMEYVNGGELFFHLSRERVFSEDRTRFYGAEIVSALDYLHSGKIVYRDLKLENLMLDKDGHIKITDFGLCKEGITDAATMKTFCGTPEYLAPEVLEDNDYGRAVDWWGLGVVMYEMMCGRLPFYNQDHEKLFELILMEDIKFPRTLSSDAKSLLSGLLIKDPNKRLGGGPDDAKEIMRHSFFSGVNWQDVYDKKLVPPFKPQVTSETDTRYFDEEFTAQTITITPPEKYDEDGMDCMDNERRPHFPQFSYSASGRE

- % kinase activity in the presence of Abd-7 [1]: 107%
- % kinase activity in the presence of Abd-7 [2]: 103%
- % kinase activity in the presence of Abd-7 [3]: 93%
SMILES: COc1nc(-c2cccc3c2OCCO3)ccc1Nc1ccc(CN(C)C)cc1 [Abd-7]
